# Data published in patent publication US20240024403A1, “Compositions and Methods for Managing Weight” (Unigen, Inc., priority 2012, published 2024).
# Assay: 14-day study in high-fat-diet fed C57BL/6J mice
# Assay type: in vivo
# Conditions: 30 mg/kg daily oral, 14 days
# Source text: A 14-day study was used to evaluate the effect of Mutamba EtOH extract fraction 84/F6 on body weight gain in high-fat-diet (HFD) fed C57BL/6J mice. Male C57BL/6J mice at the age of 6 weeks were purchased from Charles River Laboratories (Wilmington, MA) and acclimated for one week. On the day 0 (treatment start), body weights were taken for all the mice and randomly assigned to a group of four treatment groups as follows: (1) 8 mice/group received positive control=Alli; (2) 15 mice/group received Mutamba fraction 84/F6; (3) 8 mice/group received vehicle only (0.5% carboxymethyl cellulose) given to HFD control; and (4) 8 mice/group received vehicle only given to untreated normal diet control. Mice received a daily oral dose of Alli at 30 mg/kg and Mutamba 84/F6 at 1 g/kg for 14 days. Once mice received their first respective dose, they were provided ad libitum a 60% kcal high fat-diet, except for the normal diet group. Body weights were taken daily for the duration of study except on weekends. […] Blood glucose levels were measured using the Contour blood glucose monitoring kit (Bayer Health Care). Total triglyceride and cholesterol levels were measured using the CardioChek Analyzer with PTS panel test strips (Polymer Technology System, Inc, Indianapolis, IN).
compound,measurement,value
"CCCCCCCCCCC[C@@H](C[C@@H]1OC(=O)[C@H]1CCCCCC)OC(=O)[C@H](CC(C)C)NC=O [ORI, orlistat]",body weight gain vs vehicle treated HFD group,decrease in weight gain only on day 14 of treatment
same,"fasting blood glucose, total cholesterol, triglyceride vs vehicle treated HFD group",statistically significant higher levels of fasting triglyceride
